This is an account of results in patent US20250353835A1, “N-TETRAZOLYL ARYL UREA-BASED DERIVATIVES, PREPARATION METHOD THEREFOR, AND USE THEREOF” (Hangzhou Yirui Pharmaceutical Technology Co., Ltd, priority 2022, published 2025).

Where two headings read alike, the source gives them in different places.

Data set [1] can be described thus: Liver microsomal metabolism in vitro, rat LM clearance. The conditions noted are these: rat liver microsomes in vitro. Type of data set: in vitro ADME. As to the method: (§1) In addition, the LC-MS/MS method was used to determine the substrate metabolites of 5 major subtypes of human liver microsomal CYP450 enzymes (including CYP1A2, CYP2D6, CYP2C8, CYP2C9, and CYP3A4). The substrate method was used to determine the activity of human liver microsomal CYP450 enzyme. The established incubation system was verified using known inhibitors to investigate the inhibitory effect of the compound on CYP450 enzyme. For the enzyme induction test, a primary cultured human hepatocyte incubation system was used. 3-methylcholanthrene, phenobarbital, and rifampicin were used as positive control inducers of CYP1A2, CYP2B6, and CYP3A4, and phenacetin, bupropion, and testosterone were used as the substrate for CYP1A2, CYP2B6, and CYP3A4. The CYP450 enzyme activity was calculated by measuring the generation rate of 3 specific substrate metabolites in the incubation solution. Meanwhile, the total RNA was extracted from the human hepatocytes after incubation, and the real-time fluorescence quantitative PCR method was used to determine the mRNA expression level of CYP1A2, […], and CYP3A4. The enzyme activity and mRNA transcription level were used as endpoints to investigate the inductive effect of the compound on human liver P450 isoenzymes CYP1A2, […], and CYP3A4. The liver microsomal metabolism parameters in vitro are shown in Table 2B3 taking Compound 8 as an example.
On the technique in general: Liver microsomes are a subcellular fraction often used to study metabolism.

Data set [2] can be described thus: Liver microsomal metabolism in vitro, human LM clearance. Type of data set: in vitro ADME. Conditions: human liver microsomes in vitro. The procedure:
as §1

The nature of data set [3]: Drug concentration in rat retinas after intraocular injection (HPLC). The conditions noted are these: retina. It counts as in vivo, Wistar rats. From the text: 1.1 Experimental aminals: SPF-grade male Wistar rats weighed 180-220 g.
1.2 Drugs and reagents: Compound 71; sodium chloride injection (Shandong Qidu Pharmaceutical Co., Ltd., Batch No.: 3B151014124); acetonitrile (chromatographically pure, TEDIA, USA); methanol (chromatographically pure, SIGMA-ALDRICH product); triethylamine (analytically pure, Hangzhou Gaojing Fine Chemical Co., Ltd.).
1.3 Experimental grouping and administration: according to the sampling time, 33 male Wistar rats were divided into 11 groups (three rats per group) of: (1) control group; (2) 0 h; (3) 2 h; (4) 6 h; (5) 24 h; (6) 48 h; (7) 72 h; (8) 5 d; (9) 7 d; (10) 10 d; (11) 14 d. Three rats in the control group were injected with solvent (sterile normal saline) intraocularly, and the remaining 30 rats were injected with Compound 71 intraocularly at a concentration of 0.5% by using a 5 μL microinjector, and 5 μL of drug was injected per bulbus oculi.
1.4 Sampling and detection index: The retina of the rat in the control group was taken on Day 14 (14 d), and the retina of the remaining 30 rats was taken at the corresponding time points. The retina were frozen in liquid nitrogen, and then subjected to the subsequent HPLC detection.
1.5.1 Chromatographic conditions: The mobile phase was chromatographic grade acetonitrile-water=25-75 (v/v). The flow rate was 0.5 mL/min. The column temperature was 25° C. The UV detection wavelength was 254 nm. The injection volume was 20 μL.
1.5.2 Sample processing and preparation: the sample of the rat retina was taken out from the ultra-low temperature (−80° C.) refrigerator, accurately weighed and placed in a glass homogenizer, and ethyl acetate as an organic solvent pre-cooled in a 4° C. refrigerator was added at a ratio of 100 mL/g. The homogenizer was placed in an ice bath for homogenization. After homogenization, all the homogenate was poured into a 5 mL stoppered centrifuge tube. The centrifugation was performed at a low temperature of 4° C. for 5 min (5000 r/min). All the organic phase as the upper layer was accurately taken out and placed in a glass tube with conical bottom. The remaining residue of retina was extracted with 2 mL ethyl acetate repeatedly once. After centrifugation, the two organic phases were combined. Then, the centrifuge tube with conical bottom was blowed for dryness in a nitrogen flow in a 45° C. water bath. The residue was redissolved with 0.1 mL of chromatographic methanol, vortex mixed for 1 min, and centrifuged for 5 min at a high speed of 18000 r/min. 20 μL of the supernatant was taken, and analyzed in a high-performance liquid chromatography system.
1.5.3 Sample determination: After intraocular injection of 5 μL of 0.5% Compound 71, the retina was taken at different time points to analyze the drug content of the test compound in the retina.
1.5.4 Experimental results and conclusions: According to the retinal drug concentration-time curve, it is in conformity to the non-absorption two-compartment model. According to the pharmacokinetic non-absorption two-compartment model theory, the pharmacokinetic parameters of the drug were calculated.

Where [4] appears, read: intraocular injection of 5 μL of 0.5% per eye, two-compartment model.

In the case of `CCOc1ccc(-c2c(F)cc(NC(=O)N3CCC(C(C)(C)C)CC3)cc2-c2nn[nH]n2)cn1` [Compound 8, 4-(tert-butyl)-N-(4-(6-ethoxypyrid-3-yl)-3-fluoro-5-(2H-tetrazol-5-yl)phenyl)piperidine-1-carboxamide], the “Rat LM clearance” value in data set [1] turned out to be 9.83 mL/min/kg. Moreover, the “Human LM clearance” value in data set [2] was 8.5 mL/min/kg.

Take `CCOc1ccc(-c2ccc(NC(=O)N[C@H]3CC[C@H](C)CC3)cc2-c2nn[nH]n2)cn1` [Compound 71, 1-(4-(6-ethoxypyrid-3-yl)-3-(2H-tetrazol-5-yl)phenyl)-3-((trans)-4-methylcyclohexyl)urea]: the concentration at 14 d in data set [3] (male, Wistar, rat, other: intraocular injection, 5 μL of 0.5% solution per eye, Day 14 after intraocular injection of 0.5% (5 μL per eye), read-out: retinal concentration) was found to be 1240 nM. Also, in data set [3] (male, Wistar, rat, topical or ocular, 5 μL of 0.5% solution per eye, intraocular injection of 5 μL of 0.5% per eye, two-compartment model, read-out: Distribution half-life (converted)), the half-life was 6.97 h. In data set [3] (male, Wistar, rat, topical or ocular, 5 μL of 0.5% solution per eye, intraocular injection of 5 μL of 0.5% per eye, two-compartment model, read-out: Elimination half-life (converted)), the half-life is 408 h. The exposure (AUC) in data set [3] (male, Wistar, rat, topical or ocular, 5 μL of 0.5% solution per eye, intraocular injection of 5 μL of 0.5% per eye, two-compartment model, read-out: Area under the time curve AUC) came to 901 µg·h/mL. Also, in data set [3] (setting [4]), the Apparent distribution volume is on record as 0.001676 L and the “Total clearance CLT” value was determined as 5.55e-05 L/h.

In general, half-life refers to the time in which the quantity being followed falls by half. What is called AUC is the area under the concentration-time curve, a measure of exposure.
